Data on 14 compounds can be found in patent US8466162B2, “5-alkynyl-pyridines” (Boehringer Ingelheim International GmbH, priority 2011, dated 2013).

Molecules are shown by their SMILES.

For test [1], the system named is BT474 cells. The test is described as follows: alamarBlue BT474 cell assay (antiproliferative/cytotoxicity). Format: cell-based. As to conditions: BT-474 human breast cancer cell line, 5-6 days incubation. From the text: (§1) The H460, MB453, U87, MCF7 and BT474 alamarBlue cell assays provide EC50 values indicative of the antiproliferative or cytotoxic effects of the compounds to respectively the H460 (human non small cell line cancer), MB-453 (breast cancer cell line), U87 (glioblastoma cell line), MCF7 (breast cancer cell line) and BT474 (breast cancer cell line). As known in the field, antiproliferative or cytotoxic effect against this cell lines would be expected to be indicative of activity in treating lung, breast and brain cancers. See R. Marone R et al. Biochim. Biophys. Acta. 2008 January; 1784(1):159-85. S. Yaguchi et al., J. Natl. Cancer Inst. 2006 Apr. 19; 98(8):545-56.
(§2) Method Type: Antiproliferative/Cytotoxicity
(§3) alamarBlue® is designed to provide a rapid and sensitive measure of cell proliferation and cytotoxicity in various human and animal cell lines. The assay is based on the reduction of alamarBlue in the reducing environment of living (metabolically active) cells. In the presence of added cytotoxic or antiproliferative compounds, the innate metabolic activity ceases.
(§4) AlamarBlue is soluble and stable in culture medium. Measurements are made fluorometrically by exciting at 530-560 nm and measuring emission at 590 nm. In reporting percent alamarBlue reduction by monitoring fluorescence, data are expressed as fluorescence emission intensity units as a function of time of incubation.
(§5) 3. Equipment • 96-well plates, flat bottom (Falcon, Cat. No.: 353072) • 96-well plates, U-shaped (Costar, Cat. No.: 3799) • CO2-Incubator • Microplate Reader, Spectramax Plus, Molecular Devices 4. Typical Procedure • Day 0: Seed 3000 BT-474 cells (IMDM/5% FCS, 1% NEAA, 1% Sodiumpyruvat) in 150 μl medium into a 96-well plate, flat bottom (include mediumblank). Incubate plates at 37° C. in a CO2 incubator overnight. • Day 1: Dilute compounds to a concentration 40 μM ->1:3 in medium, 10 dilution steps, in 96-well plates. • Add 50 μl per well of each dilution (total volume per well 200 μl; final conc. of cpds: 10 μM ->1:3). If required, test further dilutions. • All concentrations are tested in duplicates. • Controls: Cells w/o cpd. (+50 μl medium/DMSO). • Cells are incubated with compounds for 5-6 days. • Day 6 or 7: Add 25 μl of alamarBlue solution to each well and incubate for 8 hours at 37° C. Measure fluorescence by exciting at 530-560 nm and measuring emission at 590 nm 5. Evaluation • Subtract average value for medium blank from sample readings • Calculate EC50 using GraphPad Prism (Fifty)

The subject of test [2] is H460 cells. The test is described as follows: alamarBlue H460 cell assay (antiproliferative/cytotoxicity). The settings on record: NCI-H460; H460 human lung carcinoma cells. Type of test: cell-based.
Source text: as §1, §2, §3, §4, §5
(Alamar Blue is a resazurin reagent that responds to reducing activity.)

Test [3] has as its system MCF7 cells. The test is described as follows: alamarBlue MCF7 cell assay (antiproliferative/cytotoxicity). Format: cell-based. As to conditions: MCF7 human breast cancer cell line.
Source text: as §1, §2, §3, §4, §5

Test [4] has as its target T1, PI3Kalpha (Homo sapiens, UniProt P42336).
T1 construct: His (N); made in house; host or cells: SF9 insect cells (baculovirus co-infection)
The test is described as follows: Inhibition of PI3Kalpha-induced PIP-2 phosphorylation (filter-binding assay, 33P-ATP). Format: biochemical. As to conditions: PI3 Kinase alpha (p85alpha/His-p110alpha), 1 μM ATP; read-out: IC50 PI3Kα. As to the method:
Biological Methods Inhibition of PI3Kalpha-Induced PIP-2 Phosphorylation
See also J. A. Engelman, Nature Reviews Cancer, 2009, 9, 550-562; A. Carnero, Expert Opin. Investig. Drugs, 2009, 18, 1265-1277 and P. Liu et al., Nature Reviews Drug Discovery, 2009, 8, 627-64.
Method Type: Filter-Binding-Assay
Aliquoted in desired amounts and stored at −80° C. […] Assay Procedure
The substrate-containing lipid vesicles are dissolved to a concentration of 0.637 mg lipid blend/ml assay buffer (with BSA, freshly added) in 50 ml Falcon ->keep on ice, followed by ultrasonication (pulse of 15 sec followed by a pause of 10 sec, 4×). Compounds are serially diluted in assay buffer+6% DMSO and 10 μl of each dilution is added per well of a 96-well plate (compounds are tested in duplicates) and mixed with 30 μl of the lipid vesicles containing PDGFR-Peptide (0.5 μM final) and PI3K alpha (25 ng/well final). The mixture is then incubated for 20 minutes at room temperature.
Subsequently, 20 μl of assay buffer containing 3 μM cold ATP and 0.5 μCi/20 μl 33P-ATP are added. The plates are then incubated at room temperature for 120 minutes (shaking with 300 rpm).
The reaction mix is transferred onto filter plates using “filtermate harvester” from Packard: filter plates are rinsed with PBS, then the reaction mix is filtered onto the filter plate, washed 5 times with PBS and are allowed to dry for 30-60 minutes at 50° C. The plate bottom is sealed with Perkin Elmer white adhesive foil and 25 μl/well Microscint0 are added, the top is covered with transparent adhesive foil and the plate is measured with Wallac Trilux 1450 Microbeta Counter.
As positive control serve wells containing vehicle controls (1% DMSO in assay buffer), showing non-inhibited kinase activity (high values). Wells containing assay buffer instead of enzyme can serve as control for background activity (low values).
Calculate IC50 values using the Smiley program (based on GrapPad Prism)

Test [5] deals with MB453 cells. The test is described as follows: alamarBlue MB453 cell assay (antiproliferative/cytotoxicity). Type of test: cell-based. As to conditions: Homo sapiens; MDA MB 453 breast cancer cell line.
Source text: as §1, §2, §3, §4, §5

Test [6] relates to U87 cells. The test is described as follows: alamarBlue U87 cell assay (antiproliferative/cytotoxicity). Type of test: cell-based. As to conditions: U-87MG human glioblastoma cells.
Source text: as §1, §2, §3, §4, §5

T1 sequence (P27986 whole entry): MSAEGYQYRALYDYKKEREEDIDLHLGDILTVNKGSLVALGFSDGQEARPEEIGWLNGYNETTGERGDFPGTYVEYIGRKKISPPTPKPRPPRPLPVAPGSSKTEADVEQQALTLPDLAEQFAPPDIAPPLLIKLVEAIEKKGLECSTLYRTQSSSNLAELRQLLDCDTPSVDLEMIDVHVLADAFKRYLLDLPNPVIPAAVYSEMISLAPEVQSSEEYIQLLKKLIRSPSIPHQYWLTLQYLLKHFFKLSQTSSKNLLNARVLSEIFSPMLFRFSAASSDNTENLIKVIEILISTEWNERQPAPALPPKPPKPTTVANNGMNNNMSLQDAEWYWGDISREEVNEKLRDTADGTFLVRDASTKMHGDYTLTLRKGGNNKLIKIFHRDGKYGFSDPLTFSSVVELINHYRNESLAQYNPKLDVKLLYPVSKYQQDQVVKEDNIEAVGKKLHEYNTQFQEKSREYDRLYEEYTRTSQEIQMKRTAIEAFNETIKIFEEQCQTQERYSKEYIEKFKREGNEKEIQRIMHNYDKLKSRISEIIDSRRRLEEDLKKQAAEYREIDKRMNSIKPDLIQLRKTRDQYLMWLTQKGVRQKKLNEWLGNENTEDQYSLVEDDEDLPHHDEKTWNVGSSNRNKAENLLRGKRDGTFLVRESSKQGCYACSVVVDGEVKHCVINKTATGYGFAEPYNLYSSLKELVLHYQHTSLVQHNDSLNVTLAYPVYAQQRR
T1 sequence (P42336 whole entry): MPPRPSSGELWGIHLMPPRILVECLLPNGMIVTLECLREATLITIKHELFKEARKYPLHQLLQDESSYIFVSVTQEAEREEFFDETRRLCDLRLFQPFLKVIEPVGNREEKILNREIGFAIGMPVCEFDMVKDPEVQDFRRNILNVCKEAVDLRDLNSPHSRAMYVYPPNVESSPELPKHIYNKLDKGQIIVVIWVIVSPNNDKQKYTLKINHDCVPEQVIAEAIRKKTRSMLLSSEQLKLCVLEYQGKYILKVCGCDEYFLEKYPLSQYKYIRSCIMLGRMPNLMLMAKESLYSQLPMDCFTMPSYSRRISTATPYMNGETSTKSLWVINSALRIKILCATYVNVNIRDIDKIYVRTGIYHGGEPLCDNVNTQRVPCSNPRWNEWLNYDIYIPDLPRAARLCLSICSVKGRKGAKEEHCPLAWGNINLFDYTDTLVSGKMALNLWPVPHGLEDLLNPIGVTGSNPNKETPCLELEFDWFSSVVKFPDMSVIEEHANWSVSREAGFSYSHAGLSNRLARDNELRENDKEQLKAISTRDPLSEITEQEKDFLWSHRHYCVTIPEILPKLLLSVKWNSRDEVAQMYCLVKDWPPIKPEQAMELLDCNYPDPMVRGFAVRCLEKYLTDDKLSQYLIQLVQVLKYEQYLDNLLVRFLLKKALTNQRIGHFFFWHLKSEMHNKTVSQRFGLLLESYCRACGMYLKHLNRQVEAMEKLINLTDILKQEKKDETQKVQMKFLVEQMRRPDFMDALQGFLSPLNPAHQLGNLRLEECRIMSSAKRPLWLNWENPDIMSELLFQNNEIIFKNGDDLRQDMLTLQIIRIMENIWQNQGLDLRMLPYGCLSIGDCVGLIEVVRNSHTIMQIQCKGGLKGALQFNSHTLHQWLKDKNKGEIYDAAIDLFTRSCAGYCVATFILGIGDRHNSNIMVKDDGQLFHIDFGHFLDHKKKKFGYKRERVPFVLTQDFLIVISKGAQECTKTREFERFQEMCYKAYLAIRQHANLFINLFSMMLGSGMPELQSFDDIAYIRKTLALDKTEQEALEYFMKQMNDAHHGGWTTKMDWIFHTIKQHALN

Broadly, the EC50 is the midpoint of the concentration-response curve. Low values mean greater potency, high ones weaker potency. Broadly, the IC50 is the concentration that gives 50% inhibition. As to `CCc1nc(N)nc(-c2ccc(C)nc2)c1C#Cc1cnc(C)c(NS(C)(=O)=O)c1` [Example 14, N-{5-[2-Amino-4-ethyl-6-(6-methyl-pyridin-3-yl)-pyrimidin-5-ylethynyl]-2-methyl-pyridin-3-yl}-methanesulfonamide], the concentration for a half-maximal effect (EC50) worked out at 89 nM in test [1], 305 nM in test [2] and 16 nM in test [3]. Further, the concentration for half-maximal inhibition (IC50) in test [4] came out at 1 nM.
The corresponding values for `CCc1nc(N)nc(-c2ccnc(C)c2)c1C#Cc1cnc(C)c(NS(C)(=O)=O)c1` [Example 15, N-{5-[2-Amino-4-ethyl-6-(2-methyl-pyridin-4-yl)-pyrimidin-5-ylethynyl]-2-methyl-pyridin-3-yl}-methanesulfonamide] are 107 nM, 294 nM, 40 nM and 0.95 nM.
`COc1ncc(C#Cc2c(C)nc(N)nc2-c2ccnc(C)c2)cc1NS(C)(=O)=O` [Example 21, N-{5-[2-Amino-4-methyl-6-(2-methyl-pyridin-4-yl)-pyrimidin-5-ylethynyl]-2-methoxy-pyridin-3-yl}-methanesulfonamide]: the EC50 was found to be 295 nM in test [1], 87 nM in test [2] and 22 nM in test [3]. The 50% inhibitory concentration (IC50) in test [4] was 2 nM.
As for `COc1ncc(C#Cc2c(C)nc(N)nc2-c2ccnc(C)c2)cc1NS(=O)(=O)c1ccc(F)cc1F` [Example 22, N-{5-[2-Amino-4-methyl-6-(2-methyl-pyridin-4-yl)-pyrimidin-5-ylethynyl]-2-methoxy-pyridin-3-yl}-2,4-difluoro-benzenesulfonamide], the EC50 in test [1] was 29 nM; in test [2] it was 13 nM; in test [3], 3 nM. Moreover, the IC50 in test [4] is 0.36 nM.
On to `CNC(=O)c1ccc(-c2nc(N)nc(C)c2C#Cc2cnc(C)c(NS(C)(=O)=O)c2)cc1Cl` [Example 25, 4-[2-Amino-5-(5-methanesulfonylamino-6-methyl-pyridin-3-ylethynyl)-6-methyl-pyrimidin-4-yl]-2-chloro-N-methyl-benzamide], for which the EC50 in test [1] turned out to be 231 nM; in test [2], 376 nM; in test [3], 122 nM. Also, in test [4], the IC50 came to 3 nM.
Take `CNC(=O)c1ccc(-c2nc(N)nc(C)c2C#Cc2cnc(Cl)c(NS(C)(=O)=O)c2)cc1Cl` [Example 26, 4-[2-Amino-5-(6-chloro-5-methanesulfonylamino-pyridin-3-ylethynyl)-6-methyl-pyrimidin-4-yl]-2-chloro-N-methyl-benzamide]: the concentration for a half-maximal effect (EC50) is 53 nM in test [1], 151 nM in test [2] and 17 nM in test [3]. Moreover, the half-inhibitory concentration (IC50) in test [4] was found to be 0.83 nM.
As for `CCc1ncnc(-c2cccc(C#N)c2)c1C#Cc1cnc(C)c(NS(=O)(=O)c2ccc(F)cc2F)c1` [Example 29, N-{5-[4-(3-Cyano-phenyl)-6-ethyl-pyrimidin-5-ylethynyl]-2-methyl-pyridin-3-yl}-2,4-difluoro-benzenesulfonamide], the EC50 in test [1] came to 282 nM; in test [5] it was 258 nM; in test [2], 255 nM; in test [3] it was 83 nM. Moreover, the 50% inhibitory concentration (IC50) in test [4] was 0.92 nM.
For `CCc1ncnc(-c2cccc(CN(C)C)c2)c1C#Cc1cnc(C)c(NS(=O)(=O)c2ccc(F)cc2F)c1` [Example 30, N-{5-[4-(3-Dimethylaminomethyl-phenyl)-6-ethyl-pyrimidin-5-ylethynyl]-2-methyl-pyridin-3-yl}-2,4-difluoro-benzenesulfonamide], the 50% effective concentration (EC50) was determined as 108 nM in test [1], 188 nM in test [5], 347 nM in test [2] and 77 nM in test [3]. The concentration for half-maximal inhibition (IC50) in test [4] came to 2 nM.
Turning to `CCc1nc(N)nc(-c2cccc(C#N)c2)c1C#Cc1cnc(C)c(NS(=O)(=O)c2ccc(F)cc2F)c1` [Example 34, N-{5-[2-Amino-4-(3-cyano-phenyl)-6-ethyl-pyrimidin-5-ylethynyl]-2-methyl-pyridin-3-yl}-2,4-difluoro-benzenesulfonamide], the concentration for a half-maximal effect (EC50) in test [1] amounted to 107 nM; in test [5] it was 174 nM; in test [2], 147 nM; in test [3] it was 17 nM. For the same compound, the IC50 in test [4] came out at 0.9 nM.
For the compound `CCc1ncnc(-c2ccc(C(=O)N3CCN(C)CC3)c(F)c2)c1C#Cc1cnc(C)c(NS(C)(=O)=O)c1` [Example 81, N-(5-{4-Ethyl-6-[3-fluoro-4-(4-methyl-piperazine-1-carbonyl)-phenyl]-pyrimidin-5-ylethynyl}-2-methyl-pyridin-3-yl)-methanesulfonamide], the values for the half-maximal effective concentration (EC50) in test [1], in test [2] and in test [3] were 477 nM, 2350 nM and 301 nM, respectively. Besides, in test [4], the half-maximal inhibitory concentration (IC50) amounted to 3 nM.
For `CCc1nc(N)nc(-c2ccc(C(=O)N3CCN(C)CC3)c(F)c2)c1C#Cc1cnc(C)c(NS(C)(=O)=O)c1` [Example 82, N-(5-{2-Amino-4-ethyl-6-[3-fluoro-4-(4-methyl-piperazine-1-carbonyl)-phenyl]-pyrimidin-5-ylethynyl}-2-methyl-pyridin-3-yl)-methanesulfonamide], the EC50 is 511 nM in test [1], 2270 nM in test [2] and 194 nM in test [3]. Further, the 50% inhibitory concentration (IC50) in test [4] stood at 1 nM.
As to `CCc1ncnc(-c2ccnc(C)c2)c1C#Cc1cnc(C)c(NS(=O)(=O)c2ccccc2OC)c1` [Example 96, N-{5-[4-Ethyl-6-(2-methyl-pyridin-4-yl)-pyrimidin-5-ylethynyl]-2-methyl-pyridin-3-yl}-2-methoxy-benzenesulfonamide], the concentration giving a half-maximal response (EC50) amounted to 84 nM in test [1], 102 nM in test [5], 93 nM in test [2] and 225 nM in test [6]. In addition, the 50% inhibitory concentration (IC50) in test [4] was 0.71 nM.
On to `CCc1ncnc(-c2ccnc(C)c2)c1C#Cc1cnc(C)c(NS(=O)(=O)c2ccc(OC)cc2OC)c1` [Example 98, N-{5-[4-Ethyl-6-(2-methyl-pyridin-4-yl)-pyrimidin-5-ylethynyl]-2-methyl-pyridin-3-yl}-2,4-dimethoxy-benzenesulfonamide], for which the 50% effective concentration (EC50) in test [1] was determined as 225 nM; in test [5], 437 nM; in test [2], 288 nM; in test [6], 559 nM. In addition, the half-maximal inhibitory concentration (IC50) in test [4] stood at 2 nM.
With `CCc1ncnc(-c2ccnc(C)c2)c1C#Cc1cnc(C)c(NS(=O)(=O)c2ccc(C(C)(C)C)cc2)c1` [Example 99, 4-tert-Butyl-N-{5-[4-ethyl-6-(2-methyl-pyridin-4-yl)-pyrimidin-5-ylethynyl]-2-methyl-pyridin-3-yl}-benzenesulfonamide], the EC50 in test [1] turned out to be 4970 nM; in test [5], 2930 nM; in test [2], 2490 nM; in test [6], 2420 nM. The 50% inhibitory concentration (IC50) in test [4] was 11 nM.
